Measurements taken from ChEMBL document CHEMBL3045629, “Synthesis and Herbicidal Activity of Hydantocidin Analogues: Modification of the Carbonyl Groups in Spirohydantoin” (1995).

Key:
Format in all cases: functional
Abutilon theophrasti = test: Herbicidal activity against three-leaf stage Abutilon theophrasti (velvetleaf) exposed to foliar compound spraying at 1000 ppm measured 10 days after compound treatment
Xanthium strumarium = test: Herbicidal activity against three-leaf stage Xanthium strumarium (cocklebur) exposed to foliar compound spraying at 1000 ppm measured 10 days after compound treatment
Sorghum halepense = test: Herbicidal activity against three-leaf stage Sorghum halepense (Johnson grass) exposed to foliar compound spraying at 1000 ppm measured 10 days after compound treatment
Ipomoea purpurea = test: Herbicidal activity against three-leaf stage Ipomoea purpurea (common morning-glory) exposed to foliar compound spraying at 1000 ppm measured 10 days after compound treatment
Setaria viridis = test: Herbicidal activity against three-leaf stage Setaria viridis (green foxtail) exposed to foliar compound spraying at 1000 ppm measured 10 days after compound treatment
Ambrosia artemisiifolia = test: Herbicidal activity against three-leaf stage Ambrosia artemisiifolia (ragweed) exposed to foliar compound spraying at 1000 ppm measured 10 days after compound treatment
Solanum nigrum = test: Herbicidal activity against three-leaf stage Solanum nigrum (black nightshade) exposed to foliar compound spraying at 1000 ppm measured 10 days after compound treatment
Digitaria sanguinalis = test: Herbicidal activity against three-leaf stage Digitaria sanguinalis (hairy crabgrass) exposed to foliar compound spraying at 1000 ppm measured 10 days after compound treatment
Echinochloa crus-galli = test: Herbicidal activity against three-leaf stage Echinochloa crus-galli (barnyard grass) exposed to foliar compound spraying at 1000 ppm measured 10 days after compound treatment
Panicum dichotomiflorum = test: Herbicidal activity against three-leaf stage Panicum dichotomiflorum exposed to foliar compound spraying at 1000 ppm measured 10 days after compound treatment

`O=C1NC(NCc2ccccc2)=N[C@]12O[C@H](CO)[C@@H](O)[C@H]2O` gave an Activity (Abutilon theophrasti) of 0%, an Activity (Xanthium strumarium) of 95% and an Activity (Sorghum halepense) of 0%. It also gave an Activity (Ipomoea purpurea) of 10%, an Activity (Setaria viridis) of 0% and an Activity (Ambrosia artemisiifolia) of 95%. It also gave an Activity (Solanum nigrum) of 30%, an Activity (Digitaria sanguinalis) of 0% and an Activity (Echinochloa crus-galli) of 0%. For the same compound, the Activity (Panicum dichotomiflorum) was 0%.
Work on `O=C1NC[C@]2(N1)O[C@H](CO)[C@@H](O)[C@H]2O` yielded an Activity (Abutilon theophrasti) of 10%, an Activity (Xanthium strumarium) of 0% and an Activity (Sorghum halepense) of 10%. The Activity (Ipomoea purpurea) was 0%, the Activity (Setaria viridis) was 10% and the Activity (Ambrosia artemisiifolia) was 10%. It also gave an Activity (Solanum nigrum) of 10%, an Activity (Digitaria sanguinalis) of 0% and an Activity (Echinochloa crus-galli) of 10%. It also gave an Activity (Panicum dichotomiflorum) of 10%.
In the case of `O=C1NC(=O)[C@]2(N1)O[C@H](CO)[C@@H](O)[C@H]2O` [HYDANTOCIDIN], the Activity (Abutilon theophrasti) is reported as 95%, the Activity (Xanthium strumarium) is reported as 95% and the Activity (Sorghum halepense) is reported as 95%. For the same compound, the Activity (Ipomoea purpurea) was 95%, the Activity (Setaria viridis) was 95% and the Activity (Ambrosia artemisiifolia) was 95%. For the same compound, the Activity (Solanum nigrum) was 95%, the Activity (Digitaria sanguinalis) was 95% and the Activity (Echinochloa crus-galli) was 95%. It also gave an Activity (Panicum dichotomiflorum) of 95%.
